This is an account of results in patent US7550467B2 (Schering Corporation, priority 2004, dated 2009).

The experiment concerns the target T1, MCH receptor (Homo sapiens, UniProt Q99705).
T1 construct: expressed in transfected cells; host or cells: CHO cells
Put plainly: MCH Receptor Binding Assay ([125I]-MCH, SPA beads, membranes from CHO cells expressing the MCH receptor). As for the experimental part: MCH Receptor Binding Assay:
Membranes from CHO cells expressing the MCH receptor were prepared by lysing cells with 5 mM HEPES for 15 minutes at 4° C. Cell lysates were centrifuged ([…], 15 minutes) and the pellet was resuspended in 5 mM HEPES. For each 96-well plate (Microlite, Dynex Technologies), 1 mg of cell membranes were incubated with 10 mg of wheat germ agglutinin SPA beads (Amersham) for 5 minutes at 4° C. in a volume of 10 ml of binding buffer (25 mM HEPES, 10 mM MGCl2, 10 mM NaCl, 5 mM MnCl2, 0.1% BSA). The membrane/bead mixture was centrifuged (1500×g, 3.5 min), the supernatant was aspirated, and the pellet was resuspended in 10 ml binding buffer. The centrifugation, aspiration and resuspension were then repeated. The membrane/bead mixture (100 μl) was then added to 96-well plates containing 50 μl of 500 pM [^125I]-MCH (NEN) and […] of the appropriate concentration of compound (4X the desired final concentration). Nonspecific binding was determined by including 1 μM MCH in the binding reaction. The binding reaction was incubated at room temperature for 2 hours. Plates were then analyzed in a TOPCOUNT microplate scintillation counter (Packard). Data was analyzed and Ki values were determined using GraphPad Prism.

pKi: −log10 of the molar value.

T1 sequence (Q99705 whole entry): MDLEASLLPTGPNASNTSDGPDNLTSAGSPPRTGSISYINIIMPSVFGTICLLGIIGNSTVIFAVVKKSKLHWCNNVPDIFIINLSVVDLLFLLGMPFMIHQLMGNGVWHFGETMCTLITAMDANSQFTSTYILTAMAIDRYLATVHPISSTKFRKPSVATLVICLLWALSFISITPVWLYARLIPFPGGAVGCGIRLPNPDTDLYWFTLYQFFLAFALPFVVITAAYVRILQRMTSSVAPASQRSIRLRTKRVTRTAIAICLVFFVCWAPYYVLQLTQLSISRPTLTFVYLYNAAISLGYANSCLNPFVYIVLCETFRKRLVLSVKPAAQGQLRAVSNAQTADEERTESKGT

Turning to `CNS(=O)(=O)c1ccc2c(c1)CC(N(CCCN1CCN(C)CC1)C(=O)Nc1ccc(F)c(C(F)(F)F)c1)CC2` (stereo not drawn) [Compound XXVII, 7-{3-(4-fluoro-3-trifluoromethyl-phenyl)-1-[3-(4-methyl-piperazin-1-yl)-propyl]-ureido}-5,6,7,8-tetrahydro-naphthalene-2-sulfonic acid methylamide], the pKi (as a rule, the negative decadic logarithm of the Ki, by convention in mol/L) (Ki rating (class)) was 5.70 to 6.00. `C[C@@H]1CN(C(=O)OC(C)(C)C)[C@@H](C)CN1CCCN(C(=O)Nc1cc(Cl)nc(Cl)c1)C1COc2ccc(Br)cc2C1` (stereo partly drawn) [Compound XV] gave a pKi (Ki rating (class)) greater than 6.00. On to `C[C@@H]1CN(CCCN(C(=O)Nc2ccc(F)c(Cl)c2)C2COc3ccc(Br)cc3C2)[C@@H](C)CN1` (stereo partly drawn) [Compound XXI], for which the pKi (Ki rating (class)) is greater than 6.00. As for `CN1CCN(CCCN(C(=O)Nc2ccc(F)c(Cl)c2)C2CCc3ccc(S(=O)(=O)N(C)C)cc3C2)CC1` (stereo not drawn) [Compound XXX, 7-{3-(3-chloro-4-fluoro-phenyl)-1-[3-(4-methyl-piperazin-1-yl).-propyl]-ureido}-5,6,7,8-tetrahydro-naphthalene-2-sulfonic acid dimethylamide], for the setting “Ki rating (class)”, the pKi was less than 5.70. Consider `COc1ccc2c(c1)CC(N(CCCN1CCN(C)CC1)C(=O)Nc1ccc(F)c(Cl)c1)CC2` (stereo not drawn) [Compound VII, 3-(3-chloro-4-fluoro-phenyl)-1-(7-methoxy-1,2,3,4-tetrahydro-naphthalen-2-yl)-1-[3-(4-methyl-piperazin-1-yl)-propyl]-urea], for which the pKi is, setting by setting: (Ki rating (class)) greater than 6.00; ([125I]-MCH) 7.04. In turn, `CN1CCN(CCCN(C(=O)Nc2ccc(F)c(C(F)(F)F)c2)C2CCc3ccc(S(=O)(=O)N(C)C)cc3C2)CC1` (stereo not drawn) [Compound XXXI, 7-{3-(4-fluoro-3-trifluoromethyl-phenyl)-1-[3-(4-methyl-piperazin-1-yl)-propyl]-ureido}-5,6,7,8-tetrahydro-naphthalene-2-sulfonic acid dimethylamide] showed a pKi (Ki rating (class)) of less than 5.70. The molecule `C[C@@H]1CN[C@@H](C)CN1CCCN(C(=O)Nc1ccc(F)c(Cl)c1)C1COc2ccc(Br)cc2C1` (stereo partly drawn) [Compound XVIII, (2R,5S)-1-(6-bromo-chroman-3-yl)-3-(3-chloro-4-fluoro-phenyl)-1-[3-(2,5-dimethyi-piperazin-1-yl)-propyl]-urea] had a pKi (Ki rating (class)) greater than 6.00. As for `CC(=O)Nc1ccc2c(c1)CC(N(CCCN1CCN(C)CC1)C(=O)Nc1ccc(F)c(Cl)c1)CC2` (stereo not drawn) [Compound I, N-(7-{3-(3-chloro-4-fluoro-phenyl)-1-[3-(4methyl-piperazin-1-yl)-propyl]-ureido}-5,6,7,8-tetrahydro-naphthalen-2yl)-acetamide], the pKi was greater than 6.00 (Ki rating (class)) and 8.22 ([125I]-MCH).

`C[C@@H]1CN(CCCN(C(=O)Nc2cc(Cl)nc(Cl)c2)C2COc3ccc(Br)cc3C2)[C@@H](C)CN1` (stereo partly drawn) [Compound XI]: the pKi (Ki rating (class)) is greater than 6.00. Take `CN1CCN(CCCN(C(=O)Nc2ccc(F)c(Cl)c2)C2CCc3ccc(NS(C)(=O)=O)cc3C2)CC1` (stereo not drawn) [Compound VIII, N-(7-{3-(3-chloro-4-fluoro-phenyl)-1-[3-(4-methyl-piperazin-1-yl)-propyl]-ureido}-5,6,7,8-tetrahydro-naphthalen-2-yl)-methanesulfonamide]: the pKi was greater than 6.00 (Ki rating (class)) and 7.02 ([125I]-MCH). For `CN1CCN(CCCN(C(=O)Nc2ccc(F)c(Cl)c2)C2Cc3ccccc3C2)CC1` [Compound XIX, 3-(3-chloro-4-fluoro-phenyl)-1-indan-2-yl-1-[3-(4-methyl-piperazin-1-yl)-propyl]-urea], the pKi (Ki rating (class)) is greater than 6.00. As to `CN1CCN(CCCN(C(=O)Nc2cc(Cl)nc(Cl)c2)C2CCc3ccc(S(=O)(=O)N(C)C)cc3C2)CC1` (stereo not drawn) [Compound XXXII], the negative-log Ki (pKi) (Ki rating (class)) was less than 5.70.

Where the note is “Ki rating (class)”, `C[C@@H]1CN(CCCN(C(=O)Nc2ccc(F)c(Cl)c2)C2COc3ccc(Br)cc3C2)[C@@H](C)CN1C(=O)OC(C)(C)C` (stereo partly drawn) [Compound XXVI] showed a pKi of 5.70 to 6.00. In the case of `CN1CCN(CCCN(C(=O)Nc2ccc(F)c(Cl)c2)C2CCc3cc(Br)ccc3C2)CC1` (stereo not drawn) [Compound X, 1-(6-bromo-1,2,3,4-tetrahydro-naphthalen-2-yl)-3-(3-chloro-4-fluoro-phenyl)-1-[3-(4-methyl-piperazin-1-yl)-propyl]-urea], the pKi is greater than 6.00 (Ki rating (class)) and 6.75 ([125I]-MCH). The corresponding values for `CN1CCN(CCCN(C(=O)Nc2cc(Cl)nc(Cl)c2)C2CCc3cc(C#N)ccc3C2)CC1` (stereo not drawn) [Compound VI, 3-(2,6-dichloro-pyridin-4-yl)-1-(6-cyano-1,2,3,4-tetrahydro-naphthalen-2-yl)-1-[3-(4-methyl-piperazin-1-yl)-propyl]-urea] are greater than 6.00 and 7.19. Consider `CN1CCN(CCCN(C(=O)Nc2ccc(F)c(Cl)c2)C2CCc3ccccc3C2)CC1` (stereo not drawn) [Compound XVII, 3-(3-chloro-4-fluoro-phenyl)-1-[3-(4-methyl-piperazin-1-yl)-propyl]-1-(1,2,3,4-tetrahydro-naphthalen-2-yl)-urea], for which, under “Ki rating (class)”, the pKi is greater than 6.00.

Molecule `CN1CCN(CCCN(C(=O)Nc2cc(Cl)nc(Cl)c2)C2CCc3ccc(S(C)(=O)=O)cc3C2)CC1` (stereo not drawn) [Compound XIII, 3-(2,6-dichloro-pyridin-4-yl)-1-(7-methanesulfonyl-1,2,3,4-tetrahydro-naphthalen-2-yl)-1-[3-(4-methyl-piperazin-1-yl)-propyl]-urea] gave a pKi (Ki rating (class)) greater than 6.00. As for `CN1CCN(CCCN(C(=O)Nc2ccc(F)c(Cl)c2)C2CCc3ccc([N+](=O)[O-])cc3C2)CC1` (stereo not drawn) [Compound II, 3-(3-chloro-4-fluoro-phenyl)-1-[3-(4-methyl-piperazin-1-yl)-propyl]-1-(7-nitro-1,2,3,4-tetrahydro-naphthalen-2-yl)-urea], the pKi is, setting by setting: (Ki rating (class)) greater than 6.00; ([125I]-MCH) 7.96.

Turning to `C[C@@H]1CN(C(=O)OC(C)(C)C)[C@@H](C)CN1CCCN(C(=O)Nc1ccc(F)c(Cl)c1)C1COc2ccc(Br)cc2C1` (stereo partly drawn) [Compound XXV, (2S,5R)-4-{3-[1-(6-bromo-chroman-3-yl)-3-(3-chloro-4-fluoro-phenyl)-ureido]-propyl}-2,5-dimethyl-piperazine-1-carboxylic acid tert-butyl ester], the pKi (Ki rating (class)) was 5.70 to 6.00. Still for that read-out and setting: for `C[C@@H]1CN(CCCN(C(=O)Nc2cc(Cl)nc(Cl)c2)C2COc3ccc(Br)cc3C2)[C@@H](C)CN1C(=O)OC(C)(C)C` (stereo partly drawn) [XXIII] the value was 5.70 to 6.00. Take `C[C@@H]1CN[C@@H](C)CN1CCCN(C(=O)Nc1cc(Cl)nc(Cl)c1)C1COc2ccc(Br)cc2C1` (stereo partly drawn) [Compound V]: the pKi is greater than 6.00 (Ki rating (class)) and 7.20 ([125I]-MCH). Take `CC(C)C(=O)Nc1ccc2c(c1)CC(N(CCCN1CCN(C)CC1)C(=O)Nc1ccc(F)c(Cl)c1)CC2` (stereo not drawn) [Compound IV, N-(7-{3-(3-chloro-4-fluoro-phenyl)-1-[3-(4-methyl-piperazin-1-yl)-propyl]-ureido}-5,6,7,8-tetrahydro-naphthalen-2-yl)-isobuty ramide]: the pKi (Ki rating (class)) is greater than 6.00 and the pKi ([125I]-MCH) is 7.21.

As for `COc1ccc2c(c1)CCC(N(CCCN1CCN(C)CC1)C(=O)Nc1ccc(F)c(Cl)c1)C2` (stereo not drawn) [Compound XII, 3-(3-chloro-4-fluoro-phenyl)-1-(6-methoxy-1,2,3,4-tetrahydro-naphthalen-2-yl)-1-[3-(4-methyl-piperazin-1-yl)-propyl]-urea], the pKi (Ki rating (class)) was greater than 6.00. On to `COc1cc2c(cc1OC)CC(N(CCCN1CCN(C)CC1)C(=O)Nc1ccc(F)c(Cl)c1)CC2` (stereo not drawn) [Compound XXVIII, 3-(3-chloro-4-fluoro-phenyl)-1-(6,7-dimethoxy-1,2,3,4-tetrahydro-naphthalen-2-yl)-1-[3-(4-methyl-piperazin-1-yl)-propyl]-urea], for which the pKi (Ki rating (class)) is less than 5.70. `CN1CCN(CCCN(C(=O)Nc2ccc(F)c(Cl)c2)C2CCc3ccc(S(C)(=O)=O)cc3C2)CC1` (stereo not drawn) had a pKi (Ki rating (class)) of 5.70 to 6.00. Regarding `CN1CCN(CCCN(C(=O)Nc2ccc(F)c(Cl)c2)C2CCc3ccc(C#N)cc3C2)CC1` (stereo not drawn) [Compound III, 3-(3-chloro-4-fluoro-phenyl)-1-(7-cyano-1,2,3,4-tetrahydro-naphthalen-2-yl)-1-[3-(4-methyl-piperazin-1-yl)-propyl]-urea], the pKi (Ki rating (class)) was greater than 6.00 and the negative logarithm of the Ki (pKi) ([125I]-MCH) was 7.85.

`COc1cc2c(cc1OC)CC(N(CCCN1CCN(C)CC1)C(=O)Nc1cc(Cl)nc(Cl)c1)CC2` (stereo not drawn) [Compound XX, 3-(2,6-dichloro-pyridin-4-yl)-1-(6,7-dimethoxy-1,2,3,4-tetrahydro-naphthalen-2-yl)-1-[3-(4-methyl-piperazin-1-yl)-propyl]-urea] had a pKi (Ki rating (class)) greater than 6.00. On the same count and under the same terms, as for `CN1CCN(CCCN(C(=O)Nc2ccc(F)c(Cl)c2)C2CCc3ccc(N)cc3C2)CC1` (stereo not drawn), the figure is greater than 6.00.

For `CNS(=O)(=O)c1ccc2c(c1)CC(N(CCCN1CCN(C)CC1)C(=O)Nc1cc(Cl)nc(Cl)c1)CC2` (stereo not drawn) [Compound XXII, 7-{3-(2,6-dichloro-pyridin-4-yl)-1-[3-(4-methyl-piperazin-1-yl)-propyl]-ureido}-5,6,7,8-tetrahydro-naphthalene-2-sulfonic acid methylamide], the pKi (Ki rating (class)) is greater than 6.00. On the same count and under the same terms, for `CN1CCN(CCCN(C(=O)Nc2ccc(F)c(Cl)c2)C2CCc3cc(C#N)ccc3C2)CC1` (stereo not drawn) [Compound XVI, 3-(3-chloro-4-fluoro-phenyl)-1-(6-cyano-1,2,3,4-tetrahydro-naphthalen-2-yl)-1-[3-(4-methyl-piperazin-1-yl)-propyl]-urea] the value was greater than 6.00.
